# Measurements published in ChEMBL document CHEMBL6177998, “Rational Design of Dual Degraders by Incorporating Molecular Glue Structural Features into PROTAC Degraders” (J Med Chem, 2025).
# Calls of active or inactive are those of the source. The calls are words filed in the database; no cut-off is given here.
# Columns and labels:
# [1] = test system: Protein cereblon/Androgen receptor (Homo sapiens), P10275+Q96SW2 [UNDEFINED MUTATION]; assay: PROTAC activity at CRBN/Androgen receptor splice variant 7 in human 22Rv1 cells assessed as induction of AR-V7 degradation at 0.1 uM incubated for 24 hrs by Western blot analysis relative to control; assay type: cell-based
# Protein cereblon/Androgen receptor (Homo sapiens), P10275+Q96SW2 [UNDEFINED MUTATION], sequence (P10275 whole entry, looked up, change not shown, canonical isoform): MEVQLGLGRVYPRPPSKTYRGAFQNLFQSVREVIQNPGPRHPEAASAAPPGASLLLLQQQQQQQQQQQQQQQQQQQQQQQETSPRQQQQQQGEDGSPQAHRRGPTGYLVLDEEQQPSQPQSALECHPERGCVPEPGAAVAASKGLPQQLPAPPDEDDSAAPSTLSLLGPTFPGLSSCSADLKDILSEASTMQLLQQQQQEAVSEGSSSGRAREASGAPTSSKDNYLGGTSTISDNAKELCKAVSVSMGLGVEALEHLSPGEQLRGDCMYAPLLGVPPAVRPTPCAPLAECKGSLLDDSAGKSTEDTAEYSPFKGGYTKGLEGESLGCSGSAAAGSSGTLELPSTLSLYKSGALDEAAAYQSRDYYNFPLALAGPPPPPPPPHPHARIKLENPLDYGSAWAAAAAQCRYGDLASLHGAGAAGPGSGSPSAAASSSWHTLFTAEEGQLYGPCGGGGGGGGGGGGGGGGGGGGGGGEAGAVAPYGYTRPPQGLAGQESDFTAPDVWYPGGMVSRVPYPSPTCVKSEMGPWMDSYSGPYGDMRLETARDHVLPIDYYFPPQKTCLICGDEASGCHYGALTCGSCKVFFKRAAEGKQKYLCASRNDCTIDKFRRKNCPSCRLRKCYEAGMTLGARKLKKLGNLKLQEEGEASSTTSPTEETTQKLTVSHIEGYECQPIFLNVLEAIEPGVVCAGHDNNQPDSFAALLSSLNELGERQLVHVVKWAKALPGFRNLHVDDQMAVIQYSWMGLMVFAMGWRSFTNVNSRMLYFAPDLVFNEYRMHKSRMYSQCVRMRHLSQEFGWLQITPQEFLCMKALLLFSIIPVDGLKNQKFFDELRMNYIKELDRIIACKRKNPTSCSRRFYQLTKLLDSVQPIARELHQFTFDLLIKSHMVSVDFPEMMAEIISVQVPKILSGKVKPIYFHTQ
# Protein cereblon/Androgen receptor (Homo sapiens), P10275+Q96SW2 [UNDEFINED MUTATION], sequence (Q96SW2 whole entry, looked up, change not shown, canonical isoform): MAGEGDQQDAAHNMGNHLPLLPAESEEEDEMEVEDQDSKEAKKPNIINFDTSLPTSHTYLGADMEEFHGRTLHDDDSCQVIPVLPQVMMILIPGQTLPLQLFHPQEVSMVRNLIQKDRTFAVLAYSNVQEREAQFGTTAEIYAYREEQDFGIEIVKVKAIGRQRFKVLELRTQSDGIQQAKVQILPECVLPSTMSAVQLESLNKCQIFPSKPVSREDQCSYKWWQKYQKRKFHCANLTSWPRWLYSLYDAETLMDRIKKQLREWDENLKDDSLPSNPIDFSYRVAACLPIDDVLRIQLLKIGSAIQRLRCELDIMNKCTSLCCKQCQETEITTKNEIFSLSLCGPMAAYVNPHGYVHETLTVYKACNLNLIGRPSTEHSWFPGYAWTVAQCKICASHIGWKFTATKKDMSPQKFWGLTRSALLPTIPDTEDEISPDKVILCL
# [2] = biological target: T1, Protein cereblon/Androgen receptor (Homo sapiens, UniProt P10275+Q96SW2); assay: PROTAC activity at CRBN/AR in human 22Rv1 cells assessed as induction of AR degradation at 20 nM incubated for 6 hrs by Western blot analysis (reference value: 0 %); assay type: cell-based
# T1 sequence (P10275 whole entry, looked up, canonical isoform): as the sequence (P10275 whole entry, looked up, change not shown, canonical isoform) above
# T1 sequence (Q96SW2 whole entry, looked up, canonical isoform): as the sequence (Q96SW2 whole entry, looked up, change not shown, canonical isoform) above
# [3] = test system: Protein cereblon/Androgen receptor (Homo sapiens), P10275+Q96SW2 [UNDEFINED MUTATION]; assay: PROTAC activity at CRBN/Androgen receptor splice variant 7 in human 22Rv1 cells assessed as induction of AR-V7 degradation at 20 nM incubated for 1 hrs by Western blot analysis (reference value: 0%); assay type: cell-based
# [4] = test system: Protein cereblon/Androgen receptor (Homo sapiens), P10275+Q96SW2 [UNDEFINED MUTATION]; assay: PROTAC activity at CRBN/Androgen receptor splice variant 7 in human 22Rv1 cells assessed as induction of AR-V7 degradation at 20 nM incubated for 18 hrs by Western blot analysis (reference value: 0%); assay type: cell-based
# [5] = biological target: T2, Protein cereblon/Eukaryotic peptide chain release factor GTP-binding subunit ERF3A (Homo sapiens, UniProt Q96SW2+P15170); assay: Molecular glue activity at CRBN/GSPT1 in human 22Rv1 cells assessed as induction of GSPT1 degradation at 20 nM incubated for 2 hrs by Western blot analysis (reference value: 0 %); assay type: cell-based
# T2 sequence (P15170 whole entry, looked up): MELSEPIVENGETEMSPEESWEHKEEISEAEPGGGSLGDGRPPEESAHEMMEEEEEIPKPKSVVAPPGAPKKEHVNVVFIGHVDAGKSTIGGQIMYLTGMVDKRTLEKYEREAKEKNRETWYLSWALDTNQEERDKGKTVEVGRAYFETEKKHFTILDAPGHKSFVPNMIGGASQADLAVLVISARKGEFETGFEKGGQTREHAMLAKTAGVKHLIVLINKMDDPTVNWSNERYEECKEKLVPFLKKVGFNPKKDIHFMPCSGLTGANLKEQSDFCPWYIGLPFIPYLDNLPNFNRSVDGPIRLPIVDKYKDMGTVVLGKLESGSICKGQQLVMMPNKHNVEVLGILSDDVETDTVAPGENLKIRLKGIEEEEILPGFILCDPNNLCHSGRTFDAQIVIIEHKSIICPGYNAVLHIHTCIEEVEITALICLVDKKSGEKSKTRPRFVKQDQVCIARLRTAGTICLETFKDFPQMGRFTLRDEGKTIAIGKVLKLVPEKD
# T2 sequence (Q96SW2 whole entry, looked up): as the sequence (Q96SW2 whole entry, looked up, change not shown, canonical isoform) above
# [6] = biological target: T2, Protein cereblon/Eukaryotic peptide chain release factor GTP-binding subunit ERF3A; assay: Molecular glue activity at CRBN/GSPT1 in human 22Rv1 cells assessed as induction of GSPT1 degradation at 20 nM incubated for 12 hrs by Western blot analysis (reference value: 0 %); assay type: cell-based
# [7] = test system: Protein cereblon/Androgen receptor (Homo sapiens), P10275+Q96SW2 [UNDEFINED MUTATION]; assay: PROTAC activity at CRBN/Androgen receptor splice variant 7 in human VCaP cells assessed as induction of AR-V7 degradation at 20 nM by Western blot analysis; assay type: cell-based; conditions: time 1-36 hrs
# [8] = biological target: T2, Protein cereblon/Eukaryotic peptide chain release factor GTP-binding subunit ERF3A; assay: Molecular glue activity at CRBN/GSPT1 in human 22Rv1 cells assessed as induction of GSPT1 degradation by measuring maximal efficacy incubated for 24 hrs by Western blot analysis relative to control; assay type: cell-based
# [9] = biological target: T1, Protein cereblon/Androgen receptor; assay: PROTAC activity at CRBN/AR in human LNCaP cells assessed as induction of AR degradation by measuring maximal efficacy incubated for 24 hrs by Western blot analysis relative to control; assay type: cell-based
# [10] = test system: CWR22R; assay: Effect on GSPT1 mRNA expression in human 22Rv1 cells at 1 to 10 nM incubated for 24 hrs by RT-PCR analysis; assay type: functional, cell-based; conditions: dose 1-10 nM
# [11] = test system: Protein cereblon/Androgen receptor (Homo sapiens), P10275+Q96SW2 [UNDEFINED MUTATION]; assay: PROTAC activity at CRBN/Androgen receptor splice variant 7 in human 22Rv1 cells assessed as induction of AR-V7 degradation at 50 nM preincubated with MLN4924 followed by compound addition and measured after 12 hrs by Western blot analysis; assay type: cell-based
# [12] = biological target: T2, Protein cereblon/Eukaryotic peptide chain release factor GTP-binding subunit ERF3A; assay: Molecular glue activity at CRBN/GSPT1 in human 22Rv1 cells assessed as induction of GSPT1 degradation at 50 uM preincubated with thalidomide followed by compound addition and measured after 12 hrs by Western blot analysis; assay type: cell-based
# [13] = biological target: Protein cereblon/Sal-like protein 4 (Homo sapiens) (UniProt Q96SW2+Q9UJQ4); assay: Molecular glue activity at CRBN/SALL4 in human 22Rv1 cells assessed as induction of SALL4 degradation at 1 uM incubated for 6 hrs by Western blot analysis; assay type: cell-based
# Protein cereblon/Sal-like protein 4 (Homo sapiens), sequence (Q96SW2 whole entry, looked up): as the sequence (Q96SW2 whole entry, looked up, change not shown, canonical isoform) above
# Protein cereblon/Sal-like protein 4 (Homo sapiens), sequence (Q9UJQ4 whole entry, looked up): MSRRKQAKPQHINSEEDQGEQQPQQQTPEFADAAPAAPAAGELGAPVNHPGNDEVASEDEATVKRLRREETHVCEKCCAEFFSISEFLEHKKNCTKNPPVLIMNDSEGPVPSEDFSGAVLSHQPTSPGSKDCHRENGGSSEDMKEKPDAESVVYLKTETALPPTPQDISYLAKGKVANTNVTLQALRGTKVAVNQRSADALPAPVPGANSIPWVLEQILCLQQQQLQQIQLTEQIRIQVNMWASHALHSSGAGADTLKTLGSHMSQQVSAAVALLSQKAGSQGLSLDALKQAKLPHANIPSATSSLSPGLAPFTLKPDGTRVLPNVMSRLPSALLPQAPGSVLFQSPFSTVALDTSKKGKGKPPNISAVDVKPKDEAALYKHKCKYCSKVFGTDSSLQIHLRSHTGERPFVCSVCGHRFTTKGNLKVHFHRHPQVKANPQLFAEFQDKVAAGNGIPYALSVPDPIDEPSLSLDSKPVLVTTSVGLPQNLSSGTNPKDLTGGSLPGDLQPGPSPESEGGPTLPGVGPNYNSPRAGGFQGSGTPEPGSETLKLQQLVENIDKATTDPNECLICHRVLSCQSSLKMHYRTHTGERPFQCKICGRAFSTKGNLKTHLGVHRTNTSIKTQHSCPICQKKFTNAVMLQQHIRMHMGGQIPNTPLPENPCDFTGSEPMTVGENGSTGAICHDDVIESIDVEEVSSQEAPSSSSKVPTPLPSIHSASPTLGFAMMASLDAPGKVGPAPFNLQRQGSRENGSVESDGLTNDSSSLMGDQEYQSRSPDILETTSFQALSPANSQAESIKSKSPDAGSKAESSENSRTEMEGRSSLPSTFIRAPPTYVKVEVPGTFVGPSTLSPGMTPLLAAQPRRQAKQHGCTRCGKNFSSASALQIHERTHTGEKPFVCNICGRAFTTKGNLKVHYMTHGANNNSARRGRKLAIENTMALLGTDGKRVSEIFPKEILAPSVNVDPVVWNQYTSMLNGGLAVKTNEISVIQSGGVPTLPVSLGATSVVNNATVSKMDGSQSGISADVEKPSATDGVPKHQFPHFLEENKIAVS
# [14] = test system: CWR22R; assay: Antiproliferative activity against AR-dependent human 22Rv1 cells assessed as cell growth inhibition incubated for 72 hrs by Celltiter-lumi luminescent cell viability assay; assay type: functional, cell-based; conditions: 22Rv1, 72 h
# [15] = test system: CWR22R; assay: Downregulation of GTPBP6 gene expression in human 22Rv1 cells at 3 nM incubated for 24 hrs by Volcano plot analysis; assay type: functional, cell-based
# [16] = biological target: T1, Protein cereblon/Androgen receptor; assay: PROTAC activity at CRBN/AR in human 22Rv1 cells assessed as decrease in TMPRSS2 mRNA level at 1 to 3 nM incubated for 24 hrs by qRT-PCR analysis; assay type: cell-based; conditions: dose 1-3 nM
# [17] = biological target: T1, Protein cereblon/Androgen receptor; assay: PROTAC activity at CRBN/AR in human LNCaP cells assessed as decrease in TMPRSS2 mRNA level at 10 to 100 nM incubated for 24 hrs by qRT-PCR analysis; assay type: cell-based; conditions: dose 10-100 nM
# [18] = biological target: T1, Protein cereblon/Androgen receptor; assay: PROTAC activity at CRBN/AR in human 22Rv1 cells assessed as decrease in FKBP51 protein level incubated for 24 hrs by Western blot analysis; assay type: cell-based; conditions: dose 1-10 nM
# [19] = biological target: T1, Protein cereblon/Androgen receptor; assay: PROTAC activity at CRBN/AR in human LNCaP cells assessed as decrease in FKBP51 protein level incubated for 24 hrs by Western blot analysis; assay type: cell-based; conditions: dose 1-100 nM
# [20] = test system: CWR22R; assay: Induction of apoptosis in human 22Rv1 cells assessed as increase in cleaved PARP expression incubated for 24 hrs by Western blot analysis; assay type: functional, cell-based; conditions: dose 1-30 nM
# [21] = test system: LNCaP; assay: Induction of apoptosis in human LNCaP cells assessed as increase in cleaved caspase-3 expression incubated for 24 hrs by Western blot analysis; assay type: functional, cell-based; conditions: dose 1-100 nM
# [22] = test system: LNCaP; assay: Induction of apoptosis in human LNCaP cells assessed as increase in cleaved PARP expression incubated for 24 hrs by Western blot analysis; assay type: functional, cell-based; conditions: dose 1-100 nM
# [23] = test system: Protein cereblon/Androgen receptor (Homo sapiens), P10275+Q96SW2 [UNDEFINED MUTATION]; assay: PROTAC activity at CRBN/Androgen receptor splice variant 7 in human Enzalutamide-resistant LNCaP cells assessed as induction of AR-V7 degradation at 1 to 300 nM by Western blot analysis; assay type: cell-based; conditions: dose 1-300 nM
# [24] = biological target: T2, Protein cereblon/Eukaryotic peptide chain release factor GTP-binding subunit ERF3A; assay: Molecular glue activity at CRBN/GSPT1 in human Enzalutamide-resistant VCaP cells assessed as induction of GSPT1 degradation at 1 to 300 nM by Western blot analysis; assay type: cell-based; conditions: dose 1-300 nM
# [25] = Cmax in male ICR mouse at 10 mg/kg, po by LC-MS/MS analysis; assay type: ADME, organism-based; conditions: in vivo
# [26] = test system: LNCaP; assay: Antitumor activity against human LNCaP cells xenografted in NOD SCID male mouse model assessed as tumor growth inhibition at 20 mg/kg, po administered daily for 26 days relative to control; assay type: functional; conditions: 624 h, time 26 day, read-out: TGI
# [27] = Toxicity in male NOD SCID mouse model xenografted with human LNCaP cells assessed as body weight loss at 20 mg/kg, po administered daily for 26 days; assay type: organism-based; conditions: in vivo, 624 h, time 26 day
# [28] = biological target: T2, Protein cereblon/Eukaryotic peptide chain release factor GTP-binding subunit ERF3A; assay: In vivo molecular glue activity at CRBN/GSPT1 in male NOD SCID mouse model xenografted with human LNCaP cells assessed as reduction in GSPT1 level in tumor at 20 mg/kg, po administered daily for 26 days by Western blot analysis; assay type: functional, organism-based; conditions: time 26.0 day
structure (smiles),measurement,setting,value
COc1ccc(C(C)(C)c2cc(Cl)c(OCC3CCN(C(=O)CCCCCNc4ccc5c(c4)C(=O)N(C4CCC(=O)NC4=O)C5=O)CC3)c(C#N)c2)cc1 (stereo not drawn),Activity,[1],76.7%
same,Activity,[2],49.7%
same,Activity,[3],13.3%
same,Activity,[4],91.4%
same,Activity,[5],74.6%
same,Activity,[6],98.7%
same,Activity,[7],Time-dependent-effect
same,Emax,[8],94.2%
same,Emax,[9],78.7%
same,Activity,[10],Minimal_effect
same,Activity,[11],inactive
same,Activity,[12],inactive
same,Activity,[13],inactive
same,IC50,[14],1.1 nM
same,Activity,[15],Active
same,Activity,[16],Active
same,Activity,[17],Active
same,Activity,[18],Dose-dependent-effect
same,Activity,[19],Dose-dependent-effect
same,Activity,[20],Dose-dependent-effect
same,Activity,[21],Dose-dependent-effect
same,Activity,[22],Dose-dependent-effect
same,Activity,[23],Active
same,Activity,[24],Active
same,Cmax,[25],206 ng/mL
same,inhibition in vivo at 20 mg/kg,[26],60%
same,Activity,[27],Non-toxic
same,Activity,[28],Active
